These results are taken from patent publication US20120251442A1, “Methods for Treatment of Tumors by Direct Administration of a Radioisotope” (GABRIEL INSTITUTE, INC., priority 2007, published 2012).

The nature of this data set: Radioisotope delivered into a drilled hole in the femur, tissue counting at two hours. In kind it is in vivo, Sprague Dawley rat. The procedure: A miniature drill was used to create a hole in the femur of an anesthetized Sprague Dawley rat. A miniature pump was used to deliver 3 μL of this Ho-166 composition into the hole created by the drill.
Two hours after the injection of the dose the rat was sacrificed and dissected. Tissues/organs excised and counted included bone (opposite femur), liver, kidneys, spleen, muscle, blood, heart, lung, pancreas as well as the injected femur. Counting was done by the use of a NaI gamma detector to determine the presence of radioactivity.
The amount of activity found in the site of injection was 92% of the injected dose. Less than 2% of the dose was found in the liver or in the rest of the bone. Total skeletal dose was determined by multiplying the % dose in the opposite femur by 25.
Ho-166 in 0.1M HCl was obtained from MURR. The pH was measured with pH paper showing a pH of about 1. The miniature drill described above in Example 6 was used to create a hole in the femur of an anesthetized Sprague Dawley rat. The miniature pump described above was used to deliver 3 μL of Ho-166 solution into the hole created by the drill. Two hours after the injection of the dose the rat was sacrificed and dissected. The amount of activity found in the site of injection was 5% of the injected dose. However 52% of the dose was found in the liver and 23% of the dose was found in the rest of the bone. Total skeletal dose was determined by multiplying the % dose in the opposite femur by 25.
The miniature drill described in Example 6 was used to create a hole in the femur of an anesthetized Sprague Dawley rat. The miniature pump described in Example 6 was used to deliver 2 μL of Sm-153-DOTMP solution into the hole created by the drill. Two hours after the injection of the dose the rat was sacrificed and dissected. The amount of activity found in the site of injection was 9% of the injected dose. None of the radioactivity was found in the liver and about 20% was found in the rest of the bone. Total skeletal dose was determined by multiplying the % dose in the opposite femur by 25. An average of 65% of the injected dose was found in the urine.

[1] abbreviates: two hours after injection into femur hole.

SMILES strings stand for the structures.

Turning to `O=P([O-])(O)CN1CCN(CP(=O)([O-])O)CCN(CP(=O)(O)O)CCN(CP(=O)([O-])O)CC1.[153Sm+3]` [Sm-153-DOTMP], under setting [1], the “Activity found in the site of injection, % of the injected dose” value is 9%; the “Dose found in the liver” value is given as “None”; the “Injected dose found in the urine” value is recorded as 65%. Moreover, the “Dose found in the rest of the bone” value (two hours after injection, % dose in opposite femur multiplied by 25) is on record as “about 20%”.
